Assay results from patent US10139394B2, “Method for controlling cancer metastasis or cancer cell migration by modulating the cellular level of lysyl tRNA synthetase” (Medicinal Bioconvergence Research Center, priority 2008, dated 2018).

Tests used:
[1] = system: membrane translocation of KRS; assay: Laminin-dependent membrane translocation of KRS and 67LR, cell fractionation and Western blotting; type: cell-based; settings: A549 cells; inhibitor for 3 hr, then laminin for 1 hr; FIG. 9 upper
Description: (§1) In FIG. 7, A549 cells were treated with laminin (10 ug/ml) and the level of 67LR, 37LRP and KRS was determined by Western blotting at the indicated times. Hsp90 and Cadherin were used as markers for cytoplasm and membrane, respectively. In FIG. 8, A549 cells untreated or treated with laminin for 1 h were subjected to immunofluorescence staining with anti-67LR (MLuC5, Santacruz, sc-59732) (red) and -KRS antibodies (green). In FIG. 9, A549 cells were treated with U73122 (U), staurosporin (ST) and LY294002 (LY) that inhibit PLC-gamma, PKC and PI3K, respectively, for 3 hr, then with laminin for 1 hr and checked how these kinase inhibitors would affect the membrane and cytoplasmic level of 67LR and KRS. In FIG. 10, A549 cells were transfected with Myc-KRS and incubated for 24 h. The cells were treated with the indicated chemicals and then with laminin as above. Myc-KRS was immunoprecipitated, and immunoblotted with anti-p-Thr, -Ser, and -Tyr antibodies. In FIG. 11, A549 cells were transfected with Myc-KRS and cultivated for 24 hr. The transfectants were pre-treated with LY294002 for 3 hr and then treated with laminin for 1 h. Myc-KRS was immunoprecipitated and co-precipitation of 67LR was determined by Western blotting. IgG was used as a control for immunoprecipitation. In FIG. 12, A549 cells were cultivated in the absence and presence of laminin and LY294002 as indicated. EPRS (glutamyl-prolyl-tRNA synthetase) was immunoprecipitated with its specific antibody (AbCam), and co-immunoprecipitation of KRS was determined by Western blotting (upper). The immune-depleted supernatant (ID) were subjected to Western blottingting with anti-KRS and -EPRS antibodies.
The cells were lysed with 20 mM Tris-HCl (pH 7.4) buffer containing 150 mM NaCl, 0.5% TritonX-100, 0.1% SDS, and protease inhibitor. The protein extracts were incubated with normal IgG and protein G agarose for 2 hr and then centrifuged to remove nonspecific IgG binding proteins. […]

phosphorylation of KRS = assay: Laminin-induced phosphorylation of Myc-KRS, immunoprecipitation and immunoblot with anti-p-Thr, -Ser, -Tyr antibodies; type: cell-based, human; settings: Myc-KRS transfected A549 cells; FIG. 10
Description: as §1, with “IgG was used as a control for immunoprecipitation. In FIG. 12, A549 cells were cultivated in the absence and presence of laminin and LY294002 as indicated.” left out, “The immune-depleted supernatant (ID) were subjected to Western blottingting with anti-KRS and -EPRS antibodies.” left out

A549 cells = assay: Cell migration assay in Transwell chamber; type: cell-based; settings: purified KRS at different concentration in lower chamber, 6 hr, FIG. 25
Description: In FIG. 18, A549 cells were transfected with the indicated plasmids, incubated in the absence and presence of laminin and their effect on cell migration was determined by measuring the migrated cells in transwell chamber as described. The numbers of the cells passed through the membrane were counted and shown in each panel. The experiments were performed three times. In FIG. 19, the cells treated as above were used to determine MMP-2 activity and level by zymography and Western blotting, respectively. In FIG. 20, Breast carcinoma 4T-1 cells were transfected with the indicated siRNA and subcutaneously injected to the back of Balb/C mice. After 21 days, mouse lungs were isolated and tumor nodules over 1 mm in diameter were counted. In FIG. 21, two different 4T-1 cells stably expressing exogenously introduced KRS (KRS-1 and -2) were also inoculated as above and the tumor nodules were counted 30 days after injection. […]
FIGS. 24 to 27 show effect of intracellular and extracellular KRS on cell migration, protein synthesis and cell cycle. In FIG. 24, Migration of A549 cells incubated in the absence of laminin was determined was determined by measuring the migrated cells in Transwell chamber. […] After 6 hr of incubation, the migrant were counted. […] In FIG. 27, A549 cells transfected as indicated were fixed and stained with propidium iodide, and their cell cycle was determined by flow cytometry. […]

Molecule: COc1ccc2c(c1)CC[C@@H]1[C@@H]2CC[C@]2(C)[C@@H](NCCCCCCN3C(=O)C=CC3=O)CC[C@@H]12 [U73122]
- Laminin-dependent increase of KRS and 67LR in the membrane fraction [1]: still showed laminin-dependent induction of 67LRS

Molecule: CN[C@@H]1C[C@H]2O[C@@](C)([C@@H]1OC)n1c3ccccc3c3c4c(c5c6ccccc6n2c5c31)C(=O)NC4 [staurosporin, reference compound]
- Laminin-dependent increase of KRS and 67LR in the membrane fraction [1]: still showed laminin-dependent induction of 67LRS
- laminin-induced phosphorylated KRS at threonine and serine in presence of inhibitor (phosphorylation of KRS): did not give any effect

Molecule: purified KRS: purified human lysyl-tRNA synthetase protein added extracellularly
- cell migration (chemotactic activity of extracellular KRS) (A549 cells): little affected
